# Assay results taken from ChEMBL document CHEMBL4004852, “Pharmacophore Mapping of Thienopyrimidine-Based Monophosphonate (ThP-MP) Inhibitors of the Human Farnesyl Pyrophosphate Synthase” (J Med Chem, 2017).
# pIC50: −log10 of the molar value.
# Biological target: T1, Farnesyl pyrophosphate synthase (Homo sapiens, UniProt P14324)
# T1 sequence (P14324 whole entry): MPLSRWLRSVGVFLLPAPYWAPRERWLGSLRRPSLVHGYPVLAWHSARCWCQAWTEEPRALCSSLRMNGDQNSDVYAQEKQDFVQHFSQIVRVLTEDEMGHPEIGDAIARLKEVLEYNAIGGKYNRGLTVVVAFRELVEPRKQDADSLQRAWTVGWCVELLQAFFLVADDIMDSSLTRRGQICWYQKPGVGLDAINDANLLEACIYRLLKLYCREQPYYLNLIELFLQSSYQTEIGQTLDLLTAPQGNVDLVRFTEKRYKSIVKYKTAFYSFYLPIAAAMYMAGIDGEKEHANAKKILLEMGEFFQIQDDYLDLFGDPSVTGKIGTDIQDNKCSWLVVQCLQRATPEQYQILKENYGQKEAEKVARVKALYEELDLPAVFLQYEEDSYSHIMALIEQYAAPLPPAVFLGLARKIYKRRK
# Assay: Inhibition of N-terminal His-tagged human recombinant FPPS expressed in Escherichia coli BL21 (DE3) using GPP and [3H]-IPP as substrate preincubated for 10 mins before substrate addition measured after 8 mins by liquid scintillation counting
row,SMILES,pIC50
1,COc1cc(C)c(F)cc1-c1cc2c(NC(Cc3ccccc3)P(=O)(O)O)ncnc2s1 (stereo unspecified),5.80
2,Cc1ccc(-c2cc3c(NC(CC4CCCCC4)P(=O)(O)O)ncnc3s2)cc1 (stereo unspecified),5.80
3,Cc1ccc(-c2cc3c(NC(Cc4cccc(F)c4)P(=O)(O)O)ncnc3s2)cc1 (stereo unspecified),5.96
4,Cc1ccc(-c2cc3c(NCP(=O)(O)O)ncnc3s2)cc1,5.30
5,Cc1ccc(-c2cc3c(NC(Cc4cccc(F)c4)P(=O)(O)O)ncnc3s2)cc1F (stereo unspecified),5.82
6,Cc1ccc(-c2cc3c(NC(Cc4cccc(F)c4)P(=O)(O)O)ncnc3s2)cc1Cl (stereo unspecified),6.07
7,Cc1ccc(-c2cc3c(N[C@@H](Cc4ccccc4)P(=O)(O)O)ncnc3s2)cc1,5.40
8,Cc1ccc(-c2cc3c(NC(Cc4ccccc4)P(=O)(O)O)ncnc3s2)cc1 (stereo unspecified),5.85
9,COc1ccc(F)cc1-c1cc2c(NC(Cc3cccc(F)c3)P(=O)(O)O)ncnc2s1 (stereo unspecified),6.00
10,COc1cc(C)c(F)cc1-c1cc2c(NC(Cc3cccc(F)c3)P(=O)(O)O)ncnc2s1 (stereo unspecified),6.06
11,O=P(O)(O)CNc1ncnc2sccc12,< 4.00
12,Cc1ccc(-c2cc3c(N[C@H](Cc4ccccc4)P(=O)(O)O)ncnc3s2)cc1,6.00
13,Cc1ccc(-c2cc3c(NC(c4ccc5c(c4)CCO5)P(=O)(O)O)ncnc3s2)cc1 (stereo unspecified),5.52
14,Cc1ccc(-c2cc3c(N[C@@H](Cc4ccccc4)C(=O)NP(=O)(O)O)ncnc3s2)cc1,5.43
15,Cc1ccc(-c2sc3ncncc3c2CP(=O)(O)O)cc1,≤ 4.00
16,Cc1ccc(-c2cc3c(NC(c4ccccc4)P(=O)(O)O)ncnc3s2)cc1Cl (stereo unspecified),5.80
17,COc1cc(C)c(F)cc1-c1cc2c(NCP(=O)(O)O)ncnc2s1,5.34
18,COc1cc(C)c(Cl)cc1-c1cc2c(NC(c3ccccc3)P(=O)(O)O)ncnc2s1 (stereo unspecified),5.08
19,COc1cc(C)c(Cl)cc1-c1cc2c(NCP(=O)(O)O)ncnc2s1,5.06
20,Cc1ccc(-c2sc3ncnc4c3c2COP(=O)(O)CCC4)cc1,≤ 4.00
21,COc1cc(C)c(Cl)cc1-c1cc2c(NC(Cc3ccccc3)P(=O)(O)O)ncnc2s1 (stereo unspecified),5.34
22,Cc1ccc(-c2sc3ncnc(NCP(=O)(O)O)c3c2C)cc1,5.00
23,Cc1ccc(-c2cc3c(NC(Cc4ccccc4)P(=O)(O)O)ncnc3s2)cc1Cl (stereo unspecified),5.64
24,Cc1ccc(-c2cc3c(NC(CC4CCC4)P(=O)(O)O)ncnc3s2)cc1 (stereo unspecified),5.55
25,Cc1ccc(-c2cc3c(NC(c4ccccc4)P(=O)(O)O)ncnc3s2)cc1 (stereo unspecified),5.32
26,Cc1ccc(-c2sc3ncnc(NC(Cc4ccccc4)P(=O)(O)O)c3c2C)cc1 (stereo unspecified),5.59
